Experimental data as given in ChEMBL document CHEMBL4507273 (2021).

Assays:
[1] = biological target: Casein kinase I isoform gamma-2 (Homo sapiens) (UniProt P78368); conditions: Compound concentration 1000.0 nM
[2] = biological target: Serine/threonine-protein kinase MARK2 (Homo sapiens) (UniProt Q7KZI7); conditions: Compound concentration 1000.0 nM
[3] = biological target: Serine/threonine-protein kinase ICK (Homo sapiens) (UniProt Q9UPZ9); conditions: Compound concentration 1000.0 nM
[4] = biological target: Calcium/calmodulin-dependent protein kinase kinase 1 (Homo sapiens) (UniProt Q8N5S9); conditions: Compound concentration 1000.0 nM
[5] = system: Epidermal growth factor receptor (Homo sapiens), P00533 [UNDEFINED MUTATION]; conditions: Compound concentration 1000.0 nM
[6] = biological target: Protein-tyrosine kinase 6 (Homo sapiens) (UniProt Q13882); conditions: Compound concentration 1000.0 nM
[7] = biological target: Dual specificity mitogen-activated protein kinase kinase 4 (Homo sapiens) (UniProt P45985); conditions: Compound concentration 1000.0 nM
[8] = biological target: Ribosomal protein S6 kinase alpha-4 (Homo sapiens) (UniProt O75676); conditions: Compound concentration 1000.0 nM
[9] = biological target: T1, Alpha-2C adrenergic receptor (Homo sapiens, UniProt P18825); assay: GPCRScan assay: inhibition of Alpha2C; set-up: radioligand conc. used [nm] 0.5 – 1.0, parental cells stable MDCK
T1 sequence (P18825 whole entry): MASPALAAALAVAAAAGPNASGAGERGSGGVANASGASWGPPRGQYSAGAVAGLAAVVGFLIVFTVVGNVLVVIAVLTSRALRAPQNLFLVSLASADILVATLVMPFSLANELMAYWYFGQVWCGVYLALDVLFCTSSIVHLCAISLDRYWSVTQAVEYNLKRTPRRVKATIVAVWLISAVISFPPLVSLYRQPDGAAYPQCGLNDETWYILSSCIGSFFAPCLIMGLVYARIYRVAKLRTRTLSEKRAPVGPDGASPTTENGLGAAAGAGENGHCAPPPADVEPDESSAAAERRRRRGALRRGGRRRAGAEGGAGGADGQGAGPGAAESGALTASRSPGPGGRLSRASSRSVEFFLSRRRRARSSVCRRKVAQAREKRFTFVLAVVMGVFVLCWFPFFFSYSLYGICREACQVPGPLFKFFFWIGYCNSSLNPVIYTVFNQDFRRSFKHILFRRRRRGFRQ

[10] = biological target: Proto-oncogene tyrosine-protein kinase receptor Ret (Homo sapiens) (UniProt P07949); conditions: Compound concentration 1000.0 nM
[11] = system: Phosphatidylinositol 4,5-bisphosphate 3-kinase catalytic subunit alpha isoform (Homo sapiens), P42336 [E545K]; conditions: Compound concentration 1000.0 nM
[12] = biological target: Glycogen synthase kinase-3 beta (Homo sapiens) (UniProt P49841); conditions: Compound concentration 1000.0 nM
[13] = biological target: Cyclin-dependent kinase 2 (Homo sapiens) (UniProt P24941); conditions: Compound concentration 1000.0 nM
[14] = system: Epidermal growth factor receptor (Homo sapiens), P00533 [L861Q]; conditions: Compound concentration 1000.0 nM
[15] = biological target: Dual specificity protein kinase CLK1 (Homo sapiens) (UniProt P49759); conditions: Compound concentration 1000.0 nM
[16] = biological target: 3-phosphoinositide-dependent protein kinase 1 (Homo sapiens) (UniProt O15530); conditions: Compound concentration 1000.0 nM
[17] = biological target: Epidermal growth factor receptor (Homo sapiens, UniProt P00533); assay: EGFR kinase inhibition assay
[18] = biological target: Atypical kinase COQ8B, mitochondrial (Homo sapiens) (UniProt Q96D53); conditions: Compound concentration 1000.0 nM
[19] = biological target: T2, Muscarinic acetylcholine receptor M1 (Homo sapiens, UniProt P11229); assay: GPCRScan assay: inhibition of M1; set-up: radioligand conc. used [nm] 0.3 – 1.2, parental cells stable CHO
T2 sequence (P11229 whole entry): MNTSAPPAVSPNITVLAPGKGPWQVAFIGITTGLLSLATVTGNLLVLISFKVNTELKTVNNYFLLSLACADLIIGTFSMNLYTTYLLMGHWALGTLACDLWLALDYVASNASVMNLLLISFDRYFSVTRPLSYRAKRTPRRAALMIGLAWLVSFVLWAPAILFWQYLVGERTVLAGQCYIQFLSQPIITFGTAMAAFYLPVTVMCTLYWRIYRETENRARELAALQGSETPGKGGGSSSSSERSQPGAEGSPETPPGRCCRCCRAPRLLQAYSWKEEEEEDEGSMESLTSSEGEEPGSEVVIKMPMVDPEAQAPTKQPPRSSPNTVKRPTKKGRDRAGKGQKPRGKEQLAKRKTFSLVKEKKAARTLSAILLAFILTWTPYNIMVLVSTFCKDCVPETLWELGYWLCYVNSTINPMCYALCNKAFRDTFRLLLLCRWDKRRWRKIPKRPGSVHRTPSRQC

[20] = biological target: Serine/threonine-protein kinase 16 (Homo sapiens) (UniProt O75716); conditions: Compound concentration 1000.0 nM
[21] = biological target: Macrophage colony-stimulating factor 1 receptor (Homo sapiens) (UniProt P07333); conditions: Compound concentration 1000.0 nM
[22] = biological target: MAP kinase-activated protein kinase 2 (Homo sapiens) (UniProt P49137); conditions: Compound concentration 1000.0 nM
[23] = biological target: T3, Alpha-1B adrenergic receptor (Homo sapiens, UniProt P35368); assay: GPCRScan assay: inhibition of Alpha1B; set-up: radioligand conc. used [nm] 0.3 – 1.0, parental cells stable HEK
T3 sequence (P35368 whole entry): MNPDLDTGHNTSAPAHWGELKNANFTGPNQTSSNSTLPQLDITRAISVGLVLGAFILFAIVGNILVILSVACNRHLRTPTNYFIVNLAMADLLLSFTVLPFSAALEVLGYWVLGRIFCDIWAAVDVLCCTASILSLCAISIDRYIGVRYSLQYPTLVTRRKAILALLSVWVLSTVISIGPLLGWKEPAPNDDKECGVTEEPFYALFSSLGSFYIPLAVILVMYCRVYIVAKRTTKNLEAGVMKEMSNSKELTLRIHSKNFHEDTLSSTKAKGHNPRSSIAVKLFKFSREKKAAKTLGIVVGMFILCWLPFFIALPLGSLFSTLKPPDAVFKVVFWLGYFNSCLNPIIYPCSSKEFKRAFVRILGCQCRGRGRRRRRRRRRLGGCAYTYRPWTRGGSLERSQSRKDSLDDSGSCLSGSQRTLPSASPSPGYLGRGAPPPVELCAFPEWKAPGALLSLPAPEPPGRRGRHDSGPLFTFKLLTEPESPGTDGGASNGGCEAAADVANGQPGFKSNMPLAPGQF

[24] = biological target: High affinity nerve growth factor receptor (Homo sapiens) (UniProt P04629); conditions: Compound concentration 1000.0 nM
[25] = biological target: Phosphatidylinositol 5-phosphate 4-kinase type-2 beta (Homo sapiens) (UniProt P78356); conditions: Compound concentration 1000.0 nM

Chain of Serine/threonine-protein kinase ICK (Homo sapiens) (Q9UPZ9 whole entry): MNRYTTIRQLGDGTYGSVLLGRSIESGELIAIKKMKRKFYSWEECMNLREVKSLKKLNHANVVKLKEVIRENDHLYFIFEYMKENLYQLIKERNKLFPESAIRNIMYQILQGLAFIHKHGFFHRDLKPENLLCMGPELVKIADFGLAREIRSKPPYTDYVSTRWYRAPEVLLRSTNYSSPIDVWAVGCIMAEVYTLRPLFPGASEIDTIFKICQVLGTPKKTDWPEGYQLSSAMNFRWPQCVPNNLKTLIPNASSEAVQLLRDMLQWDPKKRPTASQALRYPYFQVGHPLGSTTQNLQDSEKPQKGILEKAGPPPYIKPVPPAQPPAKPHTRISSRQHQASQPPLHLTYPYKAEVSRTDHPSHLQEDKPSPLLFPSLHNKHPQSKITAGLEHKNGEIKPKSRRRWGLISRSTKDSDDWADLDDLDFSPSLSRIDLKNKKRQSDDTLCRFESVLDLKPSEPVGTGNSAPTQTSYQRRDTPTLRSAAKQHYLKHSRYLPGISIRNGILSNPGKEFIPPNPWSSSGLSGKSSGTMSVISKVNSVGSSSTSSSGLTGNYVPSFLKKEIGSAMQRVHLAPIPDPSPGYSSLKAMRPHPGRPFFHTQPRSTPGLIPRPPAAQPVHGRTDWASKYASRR
Chain of Serine/threonine-protein kinase 16 (Homo sapiens) (O75716 whole entry): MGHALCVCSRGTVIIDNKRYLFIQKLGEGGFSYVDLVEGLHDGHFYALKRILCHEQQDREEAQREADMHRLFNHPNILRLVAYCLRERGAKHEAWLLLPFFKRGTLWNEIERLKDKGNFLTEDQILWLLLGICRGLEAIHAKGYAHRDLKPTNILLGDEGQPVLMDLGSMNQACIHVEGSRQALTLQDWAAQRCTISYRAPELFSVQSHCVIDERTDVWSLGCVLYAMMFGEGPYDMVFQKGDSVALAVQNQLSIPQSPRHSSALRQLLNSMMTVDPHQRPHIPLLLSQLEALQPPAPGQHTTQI
Chain of High affinity nerve growth factor receptor (Homo sapiens) (P04629 33-796 limits assumed): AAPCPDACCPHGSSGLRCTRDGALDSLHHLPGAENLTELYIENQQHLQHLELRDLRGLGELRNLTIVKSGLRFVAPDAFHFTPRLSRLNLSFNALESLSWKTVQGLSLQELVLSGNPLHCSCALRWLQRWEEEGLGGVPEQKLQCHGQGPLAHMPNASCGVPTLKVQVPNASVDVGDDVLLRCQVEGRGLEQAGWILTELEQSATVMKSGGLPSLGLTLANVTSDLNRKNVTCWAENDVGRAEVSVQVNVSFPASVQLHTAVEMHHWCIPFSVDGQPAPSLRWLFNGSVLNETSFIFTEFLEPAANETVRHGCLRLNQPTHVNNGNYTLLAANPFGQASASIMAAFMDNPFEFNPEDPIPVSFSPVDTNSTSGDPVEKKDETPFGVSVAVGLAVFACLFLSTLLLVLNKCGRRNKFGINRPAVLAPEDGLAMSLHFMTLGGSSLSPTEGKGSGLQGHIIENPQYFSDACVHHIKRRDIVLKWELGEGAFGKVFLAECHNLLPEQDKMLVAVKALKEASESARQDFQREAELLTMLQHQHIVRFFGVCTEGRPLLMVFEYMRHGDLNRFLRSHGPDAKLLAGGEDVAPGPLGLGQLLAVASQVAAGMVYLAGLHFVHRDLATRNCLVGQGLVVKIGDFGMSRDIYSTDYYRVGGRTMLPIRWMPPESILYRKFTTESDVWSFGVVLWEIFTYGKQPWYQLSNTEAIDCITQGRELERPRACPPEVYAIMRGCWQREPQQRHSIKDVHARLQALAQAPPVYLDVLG
Chain of Dual specificity mitogen-activated protein kinase kinase 4 (Homo sapiens) (P45985 whole entry): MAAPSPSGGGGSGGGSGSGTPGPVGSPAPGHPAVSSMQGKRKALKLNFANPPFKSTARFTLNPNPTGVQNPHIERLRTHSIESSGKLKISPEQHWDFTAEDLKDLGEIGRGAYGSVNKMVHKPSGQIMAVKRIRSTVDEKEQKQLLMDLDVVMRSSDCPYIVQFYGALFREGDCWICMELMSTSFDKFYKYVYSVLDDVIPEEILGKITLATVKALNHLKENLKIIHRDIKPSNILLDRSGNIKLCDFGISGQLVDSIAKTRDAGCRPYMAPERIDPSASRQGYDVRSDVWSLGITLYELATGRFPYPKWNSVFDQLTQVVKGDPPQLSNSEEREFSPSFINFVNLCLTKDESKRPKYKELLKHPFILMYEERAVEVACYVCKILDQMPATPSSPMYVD
Chain of 3-phosphoinositide-dependent protein kinase 1 (Homo sapiens) (O15530 whole entry): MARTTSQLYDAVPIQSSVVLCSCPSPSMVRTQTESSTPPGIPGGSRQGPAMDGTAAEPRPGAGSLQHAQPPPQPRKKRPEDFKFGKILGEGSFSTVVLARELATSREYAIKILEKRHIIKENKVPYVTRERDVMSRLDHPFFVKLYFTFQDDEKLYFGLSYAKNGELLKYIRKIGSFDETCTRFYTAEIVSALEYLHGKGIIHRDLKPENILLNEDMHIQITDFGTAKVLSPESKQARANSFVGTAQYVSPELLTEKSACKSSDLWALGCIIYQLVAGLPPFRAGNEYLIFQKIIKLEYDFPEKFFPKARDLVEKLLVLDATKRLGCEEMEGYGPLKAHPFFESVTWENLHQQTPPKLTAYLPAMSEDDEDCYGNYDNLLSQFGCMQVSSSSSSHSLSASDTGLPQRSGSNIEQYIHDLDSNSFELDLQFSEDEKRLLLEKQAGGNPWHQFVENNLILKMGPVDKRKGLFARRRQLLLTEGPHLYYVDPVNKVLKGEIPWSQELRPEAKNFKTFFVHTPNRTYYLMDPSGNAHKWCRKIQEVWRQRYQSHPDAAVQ
Chain of Atypical kinase COQ8B, mitochondrial (Homo sapiens) (Q96D53 whole entry): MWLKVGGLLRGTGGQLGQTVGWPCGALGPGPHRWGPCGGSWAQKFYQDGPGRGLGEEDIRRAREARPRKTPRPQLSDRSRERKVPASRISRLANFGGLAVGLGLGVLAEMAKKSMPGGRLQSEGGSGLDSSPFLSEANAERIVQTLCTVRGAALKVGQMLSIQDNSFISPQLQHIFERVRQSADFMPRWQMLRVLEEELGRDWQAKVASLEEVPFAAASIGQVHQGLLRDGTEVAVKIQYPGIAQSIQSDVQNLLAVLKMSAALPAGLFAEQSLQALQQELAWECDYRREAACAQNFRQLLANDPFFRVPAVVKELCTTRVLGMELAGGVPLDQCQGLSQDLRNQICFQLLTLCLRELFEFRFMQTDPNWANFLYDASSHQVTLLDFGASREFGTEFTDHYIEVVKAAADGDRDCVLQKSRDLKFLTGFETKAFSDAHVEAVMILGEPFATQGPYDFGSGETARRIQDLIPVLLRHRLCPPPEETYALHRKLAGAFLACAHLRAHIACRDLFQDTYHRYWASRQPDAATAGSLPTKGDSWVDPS
Chain of MAP kinase-activated protein kinase 2 (Homo sapiens) (P49137 whole entry, looked up): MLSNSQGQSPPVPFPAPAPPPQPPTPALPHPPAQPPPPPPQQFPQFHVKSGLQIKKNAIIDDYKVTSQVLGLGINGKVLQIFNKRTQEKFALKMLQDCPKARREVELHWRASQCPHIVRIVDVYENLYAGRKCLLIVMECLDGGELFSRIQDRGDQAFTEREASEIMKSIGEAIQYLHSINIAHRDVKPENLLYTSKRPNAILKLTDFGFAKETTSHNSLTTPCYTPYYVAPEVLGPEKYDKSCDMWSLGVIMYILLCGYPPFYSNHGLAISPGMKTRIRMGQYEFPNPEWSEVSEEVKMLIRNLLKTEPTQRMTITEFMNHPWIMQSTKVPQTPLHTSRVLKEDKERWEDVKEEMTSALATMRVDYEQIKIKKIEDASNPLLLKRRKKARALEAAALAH
Chain of Glycogen synthase kinase-3 beta (Homo sapiens) (P49841 whole entry, looked up): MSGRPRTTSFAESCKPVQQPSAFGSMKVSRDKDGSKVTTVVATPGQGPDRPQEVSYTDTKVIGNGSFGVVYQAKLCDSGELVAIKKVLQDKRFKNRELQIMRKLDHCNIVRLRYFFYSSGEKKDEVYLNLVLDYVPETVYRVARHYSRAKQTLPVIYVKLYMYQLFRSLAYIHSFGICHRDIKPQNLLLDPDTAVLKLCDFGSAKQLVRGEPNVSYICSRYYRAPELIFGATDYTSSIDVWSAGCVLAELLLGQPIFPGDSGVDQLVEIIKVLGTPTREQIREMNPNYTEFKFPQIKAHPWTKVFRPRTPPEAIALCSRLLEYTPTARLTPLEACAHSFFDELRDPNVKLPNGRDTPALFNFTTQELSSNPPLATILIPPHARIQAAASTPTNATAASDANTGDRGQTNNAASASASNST
Chain of Macrophage colony-stimulating factor 1 receptor (Homo sapiens) (P07333 whole entry): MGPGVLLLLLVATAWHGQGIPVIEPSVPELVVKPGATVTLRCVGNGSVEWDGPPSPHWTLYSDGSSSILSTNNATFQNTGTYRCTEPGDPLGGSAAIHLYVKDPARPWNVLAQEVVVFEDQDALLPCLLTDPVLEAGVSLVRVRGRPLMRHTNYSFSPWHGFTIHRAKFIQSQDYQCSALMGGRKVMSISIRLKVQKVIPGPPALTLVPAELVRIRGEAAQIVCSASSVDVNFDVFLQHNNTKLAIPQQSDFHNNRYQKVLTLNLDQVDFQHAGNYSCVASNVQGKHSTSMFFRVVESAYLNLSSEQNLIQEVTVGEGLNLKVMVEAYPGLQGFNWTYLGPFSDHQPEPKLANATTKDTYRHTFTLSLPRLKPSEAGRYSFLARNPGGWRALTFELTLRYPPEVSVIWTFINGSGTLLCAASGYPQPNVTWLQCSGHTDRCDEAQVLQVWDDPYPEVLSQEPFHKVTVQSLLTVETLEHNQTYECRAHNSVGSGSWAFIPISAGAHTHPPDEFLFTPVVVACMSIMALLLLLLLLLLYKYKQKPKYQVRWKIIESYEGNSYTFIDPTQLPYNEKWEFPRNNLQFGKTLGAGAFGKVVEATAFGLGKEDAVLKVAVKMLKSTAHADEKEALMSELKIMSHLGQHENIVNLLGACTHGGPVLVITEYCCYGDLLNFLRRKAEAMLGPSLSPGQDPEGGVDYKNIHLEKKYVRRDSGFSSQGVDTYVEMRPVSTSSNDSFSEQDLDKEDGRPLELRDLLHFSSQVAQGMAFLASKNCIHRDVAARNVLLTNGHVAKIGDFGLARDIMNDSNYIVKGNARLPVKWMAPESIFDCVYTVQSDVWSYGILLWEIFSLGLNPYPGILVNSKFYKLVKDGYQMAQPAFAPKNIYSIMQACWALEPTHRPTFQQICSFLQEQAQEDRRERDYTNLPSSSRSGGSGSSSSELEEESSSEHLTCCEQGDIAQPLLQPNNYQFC

CNCc1ccccc1-c1csc([C@@H](C)Nc2nc(C)nc3cc(OC)c(OC)cc23)c1 [BAY-293]
residual activity [1]: 98%
residual activity [2]: 99%
residual activity [3]: 82%
residual activity [4]: 100%
residual activity [5]: 50%
residual activity [6]: 100%
residual activity [7]: 86%
residual activity [8]: 79%
Ki ([9]; read-out: Ki): 131 nM
Ki ([9]; read-out: pKi (converted)): 130 nM
residual activity [10]: 86%
residual activity [11]: 78%
residual activity [12]: 90%
residual activity [13]: 82%
residual activity [14]: 97%
residual activity [15]: 98%
residual activity [16]: 92%
IC50 [17]: > 20000 nM (not active)
residual activity [18]: 65%
Ki ([19]; read-out: Ki): 238 nM
Ki ([19]; read-out: pKi (converted)): 209 nM
residual activity [20]: 97%
residual activity [21]: 91%
residual activity [22]: 83%
Ki ([23]; read-out: Ki): 265 nM
residual activity [24]: 87%
residual activity [25]: 100%

CNCc1ccccc1-c1csc([C@H](C)Nc2nc(C)nc3cc(OC)c(OC)cc23)c1 [BAY-294]
residual activity [1]: 100%
residual activity [2]: 100%
residual activity [3]: 86%
residual activity [4]: 99%
residual activity [5]: 64%
residual activity [6]: 100%
residual activity [7]: 100%
residual activity [8]: 100%
Ki ([9]; read-out: Ki): 95.2 nM
Ki ([9]; read-out: pKi (converted)): 91.2 nM
residual activity [10]: 100%
residual activity [11]: 75%
residual activity [12]: 100%
residual activity [13]: 91%
residual activity [14]: 97%
residual activity [15]: 95%
residual activity [16]: 100%
IC50 [17]: > 20000 nM (not active)
residual activity [18]: 93%
Ki ([19]; read-out: Ki): 314 nM
Ki ([19]; read-out: pKi (converted)): 224 nM
residual activity [20]: 100%
residual activity [21]: 91%
residual activity [22]: 80%
Ki ([23]; read-out: Ki): 95.3 nM
Ki ([23]; read-out: pKi (converted)): 86.1 nM
residual activity [24]: 87%
residual activity [25]: 100%
